# Measurements reported in publication PMC3388080 (PLoS ONE, 2012).
# Experiments:
# [1] = Pharmacokinetics after single i.v. or p.o. bolus in Wistar rat
# Experimental: (§1) Pharmacokinetic analyses were performed at F. Hoffmann-La Roche as described in supporting Materials and Methods S1.
# (§2) Cmax, maximum concentration; Tmax, time at which maximum concentration was observed; AUC, area under the plasma concentration vs. time curve; CL, clearance; Vss, volume of distribution at steady state; T1/2, terminal half-life; F, bioavailability; Fu, Fraction unbound. Plasma values are mean, n=2.
# [2] = Stability in human plasma
# Experimental: as §1
# [3] = Plasma protein binding (free fraction), rat plasma
# Experimental: as §1, §2
# [4] = target: T1, TRH1 (h) (antagonist effect) (Homo sapiens, UniProt P34981); test: CEREP screen, antagonist effect; type: biochemical; conditions: % of control
# T1 construct: purchased CEREP
# Experimental: (§3) SB-334867 was evaluated in a selectivity screen performed at CEREP (Paris, France). The screen consisted of binding assays on a panel of 79 target receptors. The specific binding (SB) of a radioligand to each target receptor was defined as the difference between the total binding and the nonspecific binding determined in the presence of a cold competitor in excess. […] Details on the CEREP screen are available from www.cerep.fr.
# Stability in rat plasma = test: Stability in rat plasma
# Experimental: as §1
# NK1 (h) = target: T2, NK1 (h) (Homo sapiens, UniProt P25103); test: CEREP radioligand binding; conditions: % of control specific binding
# T2 construct: purchased CEREP
# Experimental: as §3
# ORL1 (h) (NOP) = target: T3, ORL1 (h) (NOP) (Homo sapiens, UniProt P41146); test: CEREP radioligand binding; conditions: % of control specific binding
# T3 construct: purchased CEREP
# Experimental: as §3
# V1a (h) = target: T4, V1a (h) (Homo sapiens, UniProt P37288); test: CEREP radioligand binding; conditions: % of control specific binding
# T4 construct: purchased CEREP
# Experimental: as §3
# ETB (h) = target: T5, ETB (h) (Homo sapiens, UniProt P24530); test: CEREP radioligand binding; conditions: % of control specific binding
# T5 construct: purchased CEREP
# Experimental: as §3
# sst (non-selective) = test: CEREP radioligand binding; conditions: % of control specific binding
# Experimental: as §3
# D2S (h) = target: T6, D2S (h) (Homo sapiens, UniProt P14416); test: CEREP radioligand binding; conditions: % of control specific binding
# T6 construct: purchased CEREP
# Experimental: as §3
# CCKB (h) (CCK2) = target: T7, CCKB (h) (CCK2) (Homo sapiens, UniProt P32239); test: CEREP radioligand binding; conditions: % of control specific binding
# T7 construct: purchased CEREP
# Experimental: as §3
# MT1 (h) = target: T8, MT1 (h) (Homo sapiens, UniProt P48039); test: CEREP radioligand binding; conditions: % of control specific binding
# T8 construct: purchased CEREP
# Experimental: as §3
# 5-HT6 (h) = target: T9, 5-HT6 (h) (Homo sapiens, UniProt P50406); test: CEREP radioligand binding; conditions: % of control specific binding
# T9 construct: purchased CEREP
# Experimental: as §3
# BB (non-selective) = test: CEREP radioligand binding; conditions: % of control specific binding
# Experimental: as §3
# A2A (h) = target: T10, A2A (h) (Homo sapiens, UniProt P29274); test: CEREP radioligand binding
# T10 construct: purchased CEREP
# Experimental: as §3
# 5-HT2C (h) = target: T11, 5-HT2C (h) (Homo sapiens, UniProt P28335); test: CEREP radioligand binding
# T11 construct: purchased CEREP
# Experimental: as §3
# GABA (non-selective) = test: CEREP radioligand binding; conditions: % of control specific binding
# Experimental: as §3
# kappa (KOP) (guinea-pig) = target: T12, kappa (KOP) (guinea-pig) (Cavia porcellus, UniProt P41144); test: CEREP radioligand binding; conditions: % of control specific binding
# T12 construct: purchased CEREP
# Experimental: as §3
# [5] = Plasma protein binding (free fraction), human plasma
# Experimental: as §1
# Male Wistar rats = test: Spontaneous locomotor activity during the active phase; type: in vivo, rat; conditions: for spontaneous LMA: vehicle 6097±536; for effect on spontaneous LMA (in words): 3, 10, 30 mg/kg ip at ZT15, almorexant significant only at 30 mg/kg, SB-334867 at 10 and 30 mg/kg
# Experimental: Locomotor activity (LMA) was evaluated at F. Hoffmann-La Roche as described previously. Male Wistar rats were placed for 2 weeks in a 12 h light/12 h dark cycle with light onset at 22∶00 (ZT0). […] Spontaneous LMA was recorded for a period of 30 min. At the end of the experiment, the brain and plasma were collected for determination of the drug exposure and brain/plasma concentration ratio.
# Horizontal locomotor activity was recorded for a period of 30 min. Numbers on the X-axes represent intraperitoneal doses in mg/kg.***p<0.001, **p<0.01, *p<0.05 vs. Veh (one-way ANOVA followed by Dunnett’s analysis). All data are mean±SEM (n = 8 per group).
# rHCRTR1 = target: T13, rHCRTR1 (Rattus norvegicus, UniProt P56718); test: Inhibition of [^3H]almorexant binding to HEK293-rHCRTR1 membranes
# T13 construct: expressed in transfected cells; host or cells: HEK293 (transient transfection, pCI-Neo vector), membrane preparation
# T13 sequence (P56718 1-416): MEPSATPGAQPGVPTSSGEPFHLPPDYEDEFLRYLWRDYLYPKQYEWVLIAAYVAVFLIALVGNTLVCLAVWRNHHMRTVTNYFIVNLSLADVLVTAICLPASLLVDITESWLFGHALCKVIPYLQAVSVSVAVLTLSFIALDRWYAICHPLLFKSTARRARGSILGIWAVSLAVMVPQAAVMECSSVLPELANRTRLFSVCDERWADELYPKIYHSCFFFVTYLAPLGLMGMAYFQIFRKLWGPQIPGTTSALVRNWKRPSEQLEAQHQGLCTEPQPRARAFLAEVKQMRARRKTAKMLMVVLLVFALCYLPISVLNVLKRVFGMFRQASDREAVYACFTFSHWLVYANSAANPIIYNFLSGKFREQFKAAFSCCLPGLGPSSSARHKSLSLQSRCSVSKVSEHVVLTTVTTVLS
# Text: The rat cDNAs encoding HCRTR1 (Accession No. P56718) and HCRTR2 (Accession No. P56719) were subcloned into pCI-Neo expression vectors (Promega, Madison, WI) and used to transfect HEK293 cells (acquired commercially from ATCC-LGC, Molsheim, France) as previously described.
# HCRTR1 = target: T14, HCRTR1 (Rattus norvegicus, UniProt P56718); test: in vivo; type: in vivo
# T14 construct: from tissue; host or cells: coronal brain sections of male Sprague-Dawley rats (locus coeruleus)
# T14 sequence (P56718 1-416): T13 sequence (P56718 1-416)
# [6] = i.v., dose 2.40 / 5.18 / 12.10 mg/kg
# [7] = p.o., dose 6.35 / 8.75 / 18.16 mg/kg
# T11 sequence (P28335 33-458): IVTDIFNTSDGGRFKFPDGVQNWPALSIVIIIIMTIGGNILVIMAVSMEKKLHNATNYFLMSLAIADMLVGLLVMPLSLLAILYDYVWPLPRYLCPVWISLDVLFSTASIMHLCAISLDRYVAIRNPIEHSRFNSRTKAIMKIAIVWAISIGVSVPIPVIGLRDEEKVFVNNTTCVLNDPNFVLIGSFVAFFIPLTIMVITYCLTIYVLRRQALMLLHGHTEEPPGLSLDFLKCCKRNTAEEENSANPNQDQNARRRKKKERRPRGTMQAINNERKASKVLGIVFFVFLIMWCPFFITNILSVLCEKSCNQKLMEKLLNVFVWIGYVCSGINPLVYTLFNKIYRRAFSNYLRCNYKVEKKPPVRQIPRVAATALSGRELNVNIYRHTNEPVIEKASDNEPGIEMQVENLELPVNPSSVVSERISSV
# T10 sequence (P29274 whole entry): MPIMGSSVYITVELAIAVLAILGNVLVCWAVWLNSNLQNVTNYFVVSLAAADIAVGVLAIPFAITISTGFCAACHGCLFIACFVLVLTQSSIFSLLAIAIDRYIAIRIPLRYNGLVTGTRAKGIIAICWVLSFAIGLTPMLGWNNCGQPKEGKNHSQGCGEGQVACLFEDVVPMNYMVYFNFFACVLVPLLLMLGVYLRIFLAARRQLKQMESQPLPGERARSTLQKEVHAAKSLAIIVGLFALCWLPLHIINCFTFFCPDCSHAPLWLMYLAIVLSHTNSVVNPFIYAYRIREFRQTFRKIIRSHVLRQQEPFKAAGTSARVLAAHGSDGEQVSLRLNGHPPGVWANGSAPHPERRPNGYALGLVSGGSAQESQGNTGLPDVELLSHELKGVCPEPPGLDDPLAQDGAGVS
# T9 sequence (P50406 whole entry): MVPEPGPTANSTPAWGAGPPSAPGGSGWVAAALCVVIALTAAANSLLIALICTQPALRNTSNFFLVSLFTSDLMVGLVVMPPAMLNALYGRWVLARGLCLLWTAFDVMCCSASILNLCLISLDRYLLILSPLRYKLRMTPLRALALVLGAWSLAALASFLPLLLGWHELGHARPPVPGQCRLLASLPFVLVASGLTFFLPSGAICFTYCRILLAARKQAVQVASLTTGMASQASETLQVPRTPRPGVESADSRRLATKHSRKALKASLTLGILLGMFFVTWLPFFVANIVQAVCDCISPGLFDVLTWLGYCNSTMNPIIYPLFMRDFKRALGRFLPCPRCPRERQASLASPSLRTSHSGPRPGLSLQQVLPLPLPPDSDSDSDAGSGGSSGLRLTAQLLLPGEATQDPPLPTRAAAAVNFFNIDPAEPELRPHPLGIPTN
# T6 sequence (P14416 1-414 isoform P14416-2): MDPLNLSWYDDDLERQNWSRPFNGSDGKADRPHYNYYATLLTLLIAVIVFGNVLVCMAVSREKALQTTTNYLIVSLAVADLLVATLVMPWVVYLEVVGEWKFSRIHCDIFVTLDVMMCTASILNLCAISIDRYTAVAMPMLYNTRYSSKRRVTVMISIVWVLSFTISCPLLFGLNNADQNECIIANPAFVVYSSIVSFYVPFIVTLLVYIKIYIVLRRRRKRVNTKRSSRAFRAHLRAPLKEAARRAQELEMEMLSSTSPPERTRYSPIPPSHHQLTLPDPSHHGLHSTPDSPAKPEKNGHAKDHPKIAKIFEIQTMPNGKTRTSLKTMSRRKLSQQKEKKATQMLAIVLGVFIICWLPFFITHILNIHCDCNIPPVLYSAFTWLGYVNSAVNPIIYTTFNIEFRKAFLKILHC
# T3 sequence (P41146 whole entry): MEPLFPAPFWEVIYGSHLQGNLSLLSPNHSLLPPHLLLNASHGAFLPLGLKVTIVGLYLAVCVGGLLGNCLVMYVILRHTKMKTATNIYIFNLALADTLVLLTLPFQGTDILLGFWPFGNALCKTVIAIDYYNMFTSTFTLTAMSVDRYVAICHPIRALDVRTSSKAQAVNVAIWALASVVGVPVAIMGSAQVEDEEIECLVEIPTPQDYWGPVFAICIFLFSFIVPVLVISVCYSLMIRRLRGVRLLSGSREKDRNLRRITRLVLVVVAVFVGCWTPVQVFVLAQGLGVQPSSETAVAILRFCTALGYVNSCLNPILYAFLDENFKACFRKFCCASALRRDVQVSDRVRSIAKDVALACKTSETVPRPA
# T8 sequence (P48039 whole entry): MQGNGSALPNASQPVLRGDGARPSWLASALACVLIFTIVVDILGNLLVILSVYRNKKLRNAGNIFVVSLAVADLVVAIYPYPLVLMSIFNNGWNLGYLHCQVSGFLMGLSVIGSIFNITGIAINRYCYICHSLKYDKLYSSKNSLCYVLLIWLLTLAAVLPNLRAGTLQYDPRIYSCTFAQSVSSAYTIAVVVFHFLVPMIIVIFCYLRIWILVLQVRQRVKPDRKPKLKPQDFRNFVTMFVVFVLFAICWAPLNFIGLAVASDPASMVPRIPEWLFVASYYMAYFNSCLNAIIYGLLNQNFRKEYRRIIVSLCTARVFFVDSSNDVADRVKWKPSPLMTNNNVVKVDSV
# T5 sequence (P24530 27-442): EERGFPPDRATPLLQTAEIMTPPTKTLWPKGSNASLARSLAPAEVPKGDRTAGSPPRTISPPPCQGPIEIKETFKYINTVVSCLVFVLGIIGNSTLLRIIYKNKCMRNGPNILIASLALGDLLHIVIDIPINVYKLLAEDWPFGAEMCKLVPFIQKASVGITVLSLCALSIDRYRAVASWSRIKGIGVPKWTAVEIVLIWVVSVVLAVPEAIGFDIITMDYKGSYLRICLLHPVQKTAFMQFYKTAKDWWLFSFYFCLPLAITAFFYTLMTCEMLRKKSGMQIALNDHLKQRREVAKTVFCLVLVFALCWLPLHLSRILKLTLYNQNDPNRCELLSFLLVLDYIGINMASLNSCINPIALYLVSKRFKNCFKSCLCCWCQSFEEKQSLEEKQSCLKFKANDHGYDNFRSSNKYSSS
# T12 sequence (P41144 whole entry): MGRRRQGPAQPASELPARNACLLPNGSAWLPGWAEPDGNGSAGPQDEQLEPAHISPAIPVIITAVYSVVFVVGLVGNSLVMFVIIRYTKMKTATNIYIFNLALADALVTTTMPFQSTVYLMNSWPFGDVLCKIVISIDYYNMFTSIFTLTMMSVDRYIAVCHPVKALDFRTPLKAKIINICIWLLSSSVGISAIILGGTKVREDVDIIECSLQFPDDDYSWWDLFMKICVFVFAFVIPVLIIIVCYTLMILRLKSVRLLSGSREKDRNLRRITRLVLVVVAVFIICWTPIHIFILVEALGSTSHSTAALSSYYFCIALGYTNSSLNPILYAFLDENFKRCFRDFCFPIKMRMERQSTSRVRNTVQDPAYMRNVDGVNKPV
# T1 sequence (P34981 whole entry): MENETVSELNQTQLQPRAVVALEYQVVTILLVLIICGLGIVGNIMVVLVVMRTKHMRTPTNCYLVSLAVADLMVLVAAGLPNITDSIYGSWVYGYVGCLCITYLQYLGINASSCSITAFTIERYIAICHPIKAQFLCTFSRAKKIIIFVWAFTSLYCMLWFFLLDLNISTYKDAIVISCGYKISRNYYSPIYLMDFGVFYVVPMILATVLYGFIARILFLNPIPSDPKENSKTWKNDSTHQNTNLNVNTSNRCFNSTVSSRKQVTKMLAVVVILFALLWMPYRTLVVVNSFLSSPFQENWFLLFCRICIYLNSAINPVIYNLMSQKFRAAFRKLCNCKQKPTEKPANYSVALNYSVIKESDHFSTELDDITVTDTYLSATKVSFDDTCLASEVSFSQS
# T4 sequence (P37288 whole entry): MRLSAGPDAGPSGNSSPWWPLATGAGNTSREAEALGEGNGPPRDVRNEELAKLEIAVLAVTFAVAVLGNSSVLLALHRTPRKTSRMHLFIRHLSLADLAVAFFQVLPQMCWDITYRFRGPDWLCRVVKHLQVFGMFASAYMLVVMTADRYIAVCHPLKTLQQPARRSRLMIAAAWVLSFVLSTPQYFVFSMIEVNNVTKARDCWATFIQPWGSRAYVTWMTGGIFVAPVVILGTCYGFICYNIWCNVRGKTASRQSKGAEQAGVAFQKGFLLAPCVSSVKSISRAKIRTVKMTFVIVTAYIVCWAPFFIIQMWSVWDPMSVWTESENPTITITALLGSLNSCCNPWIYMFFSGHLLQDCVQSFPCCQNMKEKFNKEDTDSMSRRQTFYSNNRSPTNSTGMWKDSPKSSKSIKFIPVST
# T7 sequence (P32239 whole entry): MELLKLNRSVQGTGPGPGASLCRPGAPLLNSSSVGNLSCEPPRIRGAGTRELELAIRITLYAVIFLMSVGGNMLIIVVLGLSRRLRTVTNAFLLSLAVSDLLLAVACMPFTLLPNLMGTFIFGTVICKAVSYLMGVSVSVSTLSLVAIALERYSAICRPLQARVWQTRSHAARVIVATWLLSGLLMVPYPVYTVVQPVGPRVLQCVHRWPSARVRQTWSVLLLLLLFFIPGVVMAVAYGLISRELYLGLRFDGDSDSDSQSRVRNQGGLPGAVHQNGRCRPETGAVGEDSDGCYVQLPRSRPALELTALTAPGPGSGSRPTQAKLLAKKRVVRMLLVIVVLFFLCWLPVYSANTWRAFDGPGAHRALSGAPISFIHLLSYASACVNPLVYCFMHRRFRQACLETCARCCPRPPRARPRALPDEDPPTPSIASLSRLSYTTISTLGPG
# T2 sequence (P25103 whole entry): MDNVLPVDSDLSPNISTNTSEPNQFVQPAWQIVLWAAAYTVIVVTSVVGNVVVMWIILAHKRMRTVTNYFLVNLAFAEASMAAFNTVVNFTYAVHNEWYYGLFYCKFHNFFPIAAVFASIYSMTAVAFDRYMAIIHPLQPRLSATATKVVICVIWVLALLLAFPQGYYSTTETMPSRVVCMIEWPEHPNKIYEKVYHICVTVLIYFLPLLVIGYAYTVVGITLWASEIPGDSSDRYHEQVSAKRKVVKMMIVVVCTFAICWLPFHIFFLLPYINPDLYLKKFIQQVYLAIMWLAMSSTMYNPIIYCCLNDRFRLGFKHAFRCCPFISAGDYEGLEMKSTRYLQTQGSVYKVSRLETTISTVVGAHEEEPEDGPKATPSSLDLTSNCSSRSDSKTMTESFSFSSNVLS
compound,measurement,setting,value
"Cc1nc2ccc(NC(=O)Nc3ccnc4cccnc34)cc2o1.Cl [SB-334867, 1-(2-methylbenzoxazol-6-yl)-3-[1], [5]naphthyridin-4-yl-urea hydrochloride]",CL,[1]; i.v.,5.40 mL/min/kg
same,Vss,[1]; i.v.,0.57 L/kg
same,AUC/Dose,[1]; [6],3118.90 ng/h/mL
same,T1/2 (terminal half-life),[1]; [6],1.21 h
same,Tmax,[1]; [6],0.00 h
same,Cmax/Dose,"[1]; i.v., dose almorexant 2.40, SB-334867 5.18, SB-408124 12.10 mg/kg",1937.40 ng/mL
same,F (bioavailability),[1]; p.o.,45.70%
same,AUC/Dose,[1]; [7],1423.50 ng/h/mL
same,T1/2 (terminal half-life),[1]; [7],3.10 h
same,Tmax,[1]; [7],1.50 h
same,Cmax/Dose,"[1]; p.o., dose almorexant 6.35, SB-334867 8.75, SB-408124 18.16 mg/kg",331.10 ng/mL
same,Vss (in words),[1]; rat,medium
same,oral bioavailability (in words),[1]; rat,medium
same,systemic plasma clearance (in words),[1]; rat,low
same,stability in plasma,[2]; 1 h,95%
same,stability in plasma,[2]; 4 h,93%
same,Fu (fraction unbound / free fraction),[3],0.8%
same,% Control (10 µM) Mean SB,[4],78.5%
same,stability in plasma,Stability in rat plasma; 1 h,104%
same,stability in plasma,Stability in rat plasma; 4 h,110%
same,% Control (10 µM) Mean SB,NK1 (h),104.4%
same,% Control (10 µM) Mean SB,ORL1 (h) (NOP),102.9%
same,% Control (10 µM) Mean SB,V1a (h),106.1%
same,% Control (10 µM) Mean SB,ETB (h),96.5%
same,% Control (10 µM) Mean SB,sst (non-selective),88.9%
same,% Control (10 µM) Mean SB,D2S (h),101.2%
same,% Control (10 µM) Mean SB,CCKB (h) (CCK2),135.1%
same,% Control (10 µM) Mean SB,MT1 (h),102.4%
same,% Control (10 µM) Mean SB,5-HT6 (h),102.9%
same,% Control (10 µM) Mean SB,BB (non-selective),109.9%
same,displacement of specific binding,"A2A (h); 10 µM, A2A (adenosine)",89%
same,% Control (10 µM) Mean SB,A2A (h); % of control specific binding,10.6%
same,displacement of specific binding,"5-HT2C (h); 10 µM, 5HT2C (serotonin 2C)",70%
same,% Control (10 µM) Mean SB,5-HT2C (h); % of control specific binding,30.4%
same,% Control (10 µM) Mean SB,GABA (non-selective),105.5%
same,% Control (10 µM) Mean SB,kappa (KOP) (guinea-pig),100.8%
same,free fraction,[5],1.3%
same,spontaneous LMA,"Male Wistar rats; 10 mg/kg ip at ZT15, 30 min recording",3509±383
same,spontaneous LMA,"Male Wistar rats; 30 mg/kg ip at ZT15, 30 min recording",2626±341
same,effect on spontaneous LMA (in words),Male Wistar rats,dose-dependently reduced spontaneous LMA
"CNC(=O)[C@@H](c1ccccc1)N1CCc2cc(OC)c(OC)cc2[C@@H]1CCc1ccc(C(F)(F)F)cc1 [almorexant, (2R)-2-[(1S)-6,7-Dimethoxy-1-[2-(4-trifluoromethyl-phenyl)-ethyl]-3,4-dihydro-1H-isoquinolin-2-yl]-N-methyl-2-phenyl-acetamide]",AUC/Dose,"[1]; Wistar, rat, in vivo, iv",193.70 ng/h/mL
same,Tmax,"[1]; Wistar, rat, in vivo, iv",0 h
same,Vd,"[1]; Wistar, rat, in vivo, iv",9.45 L/kg
same,clearance,"[1]; Wistar, rat, in vivo, iv",87.1 mL/min/kg
same,half-life,"[1]; Wistar, rat, in vivo, iv",2.58 h
same,Cmax/Dose,"[1]; Wistar, rat, in vivo, iv, 12.1 mg/kg",238.20 ng/mL
same,AUC/Dose,"[1]; Wistar, rat, in vivo, po",28.00 ng/h/mL
same,Tmax,"[1]; Wistar, rat, in vivo, po",0.5 h
same,bioavailability,"[1]; Wistar, rat, in vivo, po",14.4%
same,half-life,"[1]; Wistar, rat, in vivo, po",1.29 h
same,Cmax/Dose,"[1]; Wistar, rat, in vivo, po, 18.16 mg/kg",12.90 ng/mL
same,Vss (in words),"[1]; rat, in vivo",high
same,systemic plasma clearance (in words),"[1]; rat, in vivo",high
same,oral bioavailability (in words),"[1]; rat, in vivo, po",low
same,stability in plasma,[2]; 2 h,90.0%
same,fraction unbound,"[3]; rat, plasma",< 0.087
same,Ki,rHCRTR1,7.1 ± 0.7 nM
same,stability in plasma,Stability in rat plasma; 2 h,95.0%
same,fraction unbound,"[5]; human, plasma",< 0.037
same,HCRTR1 RO,HCRTR1; in vivo,50–60%
same,HCRTR1 RO (in words),HCRTR1; in vivo,returned to basal levels
same,"HCRTR1 RO, maximum",HCRTR1; in vivo,59%
same,receptor occupancy at 30 mg/kg,"HCRTR1; ip, read-out: HCRTR1 occupancy",~50%
same,effect on spontaneous LMA (in words),Male Wistar rats,dose-dependently reduced LMA
